Data on 14 compounds can be found in ChEMBL document CHEMBL1201862, “PubChem BioAssay data set” (2004).

Calls of active or inactive are those of the source.

In assay [1] the target is Luciferin 4-monooxygenase (Photinus pyralis, UniProt P08659). Put plainly: firefly luciferase enzyme inhibitors, dose response, biochemical, luminescence (AID 1891).
Assay [2] can be described thus: Luminescence Cell-Based Dose Confirmation HTS to Identify Inhibitors of Platelet Dense Granule Release. [Related pubchem assays: 1663 (Primary HTS), 1678 (Summary of Project)]. It is filed as functional.
Assay [3] has as its target T1, Protein skinhead-1 (Caenorhabditis elegans, UniProt P34707).
T1 sequence (P34707 whole entry): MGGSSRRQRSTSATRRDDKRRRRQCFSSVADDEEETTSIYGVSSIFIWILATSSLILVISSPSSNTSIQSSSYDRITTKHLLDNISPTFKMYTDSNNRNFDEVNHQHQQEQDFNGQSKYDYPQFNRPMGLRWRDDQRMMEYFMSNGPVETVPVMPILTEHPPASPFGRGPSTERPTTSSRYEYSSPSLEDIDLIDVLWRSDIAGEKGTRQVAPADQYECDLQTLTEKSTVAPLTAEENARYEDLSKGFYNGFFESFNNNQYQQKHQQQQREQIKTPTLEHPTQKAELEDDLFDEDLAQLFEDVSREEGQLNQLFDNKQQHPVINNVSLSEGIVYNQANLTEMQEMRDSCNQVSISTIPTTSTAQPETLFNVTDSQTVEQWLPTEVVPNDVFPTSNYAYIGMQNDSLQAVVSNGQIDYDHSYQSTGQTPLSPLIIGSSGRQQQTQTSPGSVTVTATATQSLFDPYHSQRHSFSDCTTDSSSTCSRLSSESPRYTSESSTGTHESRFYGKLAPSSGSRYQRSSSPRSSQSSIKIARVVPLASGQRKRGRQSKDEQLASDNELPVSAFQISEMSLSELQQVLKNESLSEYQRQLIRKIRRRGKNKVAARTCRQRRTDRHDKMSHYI
It is filed as functional.

The nature of assay [4]: cells. It is filed as functional, cell-based.
Assay [5] has as its target T2, Nuclear receptor subfamily 0 group B member 1 (Homo sapiens, UniProt P51843).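 Also: HEK293T cells transfected with SF-1 and DAX-1 plus StAR promoter luciferase reporter.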
T2 sequence (P51843 whole entry): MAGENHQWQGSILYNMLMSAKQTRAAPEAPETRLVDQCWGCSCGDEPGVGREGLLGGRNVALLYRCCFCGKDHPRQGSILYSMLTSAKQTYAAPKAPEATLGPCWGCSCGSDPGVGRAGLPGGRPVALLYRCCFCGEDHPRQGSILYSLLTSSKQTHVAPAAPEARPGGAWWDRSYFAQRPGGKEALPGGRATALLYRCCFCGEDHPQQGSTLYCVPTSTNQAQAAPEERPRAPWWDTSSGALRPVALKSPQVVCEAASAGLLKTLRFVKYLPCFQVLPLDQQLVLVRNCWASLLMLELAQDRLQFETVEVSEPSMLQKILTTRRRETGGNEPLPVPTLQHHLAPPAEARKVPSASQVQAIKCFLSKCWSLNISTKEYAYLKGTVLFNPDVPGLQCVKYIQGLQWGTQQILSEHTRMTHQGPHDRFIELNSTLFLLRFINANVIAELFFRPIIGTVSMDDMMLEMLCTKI
It counts as functional, cell-based.

Assay [6] has as its system HeLa. Put plainly: HeLa cell cytotoxicity, dose response, cytotoxicity control for MITF activator project, CellTiter-Glo luminescence, cherry-pick samples (AID 540259). To be noted: Homo sapiens. It counts as functional, cell-based. Background: Cellular ATP, detected with luciferase, serves as a proxy for viable cell number.
Assay [7] deals with T3, Long-chain-fatty-acid--AMP ligase FadD28 (Mycobacterium tuberculosis, UniProt P9WQ59).
T3 sequence (P9WQ59 whole entry): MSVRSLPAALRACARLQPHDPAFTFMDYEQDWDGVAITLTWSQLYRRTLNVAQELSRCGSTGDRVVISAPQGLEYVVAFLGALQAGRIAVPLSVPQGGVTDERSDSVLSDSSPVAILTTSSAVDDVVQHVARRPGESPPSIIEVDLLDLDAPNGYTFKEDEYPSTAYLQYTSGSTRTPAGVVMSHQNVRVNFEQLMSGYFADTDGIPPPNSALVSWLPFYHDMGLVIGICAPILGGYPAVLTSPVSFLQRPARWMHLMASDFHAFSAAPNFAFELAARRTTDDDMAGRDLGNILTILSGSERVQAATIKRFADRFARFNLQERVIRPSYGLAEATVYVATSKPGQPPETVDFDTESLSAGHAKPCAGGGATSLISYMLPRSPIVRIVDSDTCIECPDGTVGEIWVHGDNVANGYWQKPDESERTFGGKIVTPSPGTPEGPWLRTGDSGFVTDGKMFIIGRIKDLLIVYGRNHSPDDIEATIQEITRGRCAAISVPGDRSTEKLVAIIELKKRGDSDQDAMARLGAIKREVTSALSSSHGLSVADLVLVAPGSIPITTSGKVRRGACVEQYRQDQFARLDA
Put plainly: Fluorescence polarization aasay to screen for inhibitors that compete for the binding of FadD28 to a bisubstrate Measured in Biochemical System Using Plate Reader - 2147-01_Inhibitor_Dose_CherryPick_Activity. It counts as functional, Mycobacterium tuberculosis H37Rv.

In assay [8] the target is T4, Fatty acid synthase (Homo sapiens, UniProt P49327). Put plainly: FAS thioesterase domain inhibitors, dose response, biochemical, endpoint fluorescence intensity, uHTS hits (AID 624327).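 Also: fluorescence from hydrolysis of an O-methyl fluorescein acyl ester substrate by the enzyme.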 It counts as functional.
The target in assay [9] is T4, Fatty acid synthase. Put plainly: FAS thioesterase domain inhibitors, dose response, biochemical, kinetic fluorescence intensity (AID 624326).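 Also: rate of fluorescence rise from hydrolysis of a fluorogenic O-methyl fluorescein ester substrate.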 It counts as functional.
Assay [10] addresses Large T antigen (Simian virus 40, UniProt P03070). It counts as functional, Betapolyomavirus macacae.
The target of assay [11] is Induced myeloid leukemia cell differentiation protein Mcl-1 (Homo sapiens, UniProt Q07820). It counts as functional.
Assay [12] is described as follows: A549 cell cytotoxicity, dose response, cytotoxicity control, plate reader, cherry-pick, antagonist series (AID 743412). It is filed as functional, cell-based.
A short description of assay [13]: HepG2 cell cytotoxicity, dose response, cytotoxicity control, plate reader, cherry-pick, antagonist series (AID 743416). It counts as functional, cell-based.
Assay [14] can be described thus: LGR2 antagonists, dose response, cell-based, HEK293, CRE-luciferase reporter, cherry pick, set 2 (AID 743343).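 Also: transfected cells were stimulated with diluted bursicon conditioned medium after compound addition.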 It is filed as functional. In general terms: A reporter such as luciferase makes a cellular process visible.
A short description of assay [15]: MC4R antagonists, dose response, counter-screen for LGR2 antagonist project, cell-based, plate reader, cherry pick (AID 743444).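 Also: transfected HEK 293 cells stimulated with alpha-MSH peptide; potency of inhibitors of the alpha-MSH evoked signal.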 It is filed as functional. A general note: The purpose of a counterscreen is to sort out artefacts and off-target activity.
For assay [16], the target named is Albumin (Bos taurus, UniProt P02769). Nature of the assay: Counterscreen for inhibitors of T-cell receptor (TCR)-CD3 interaction: Fluorescence-based biochemical high throughput dose response assay to identify inhibitors of T-cell receptor (TCR)-CD3 interaction using a TAMRA-labeled BSA probe. It counts as functional.
The target in assay [17] is T5, Oxysterols receptor LXR-beta (Homo sapiens, UniProt P55055).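 Also: Cell-based luminescence dose-response assay of agonist activity at LXR, run as a confirmatory counterscreen to a daf-12 agonist screen; HEK293 cells with Gal4-LXR fusion and GAL4-driven luciferase reporter; agonist potency from rising luciferase signal of a Gal4-LXR reporter.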
T5 sequence (P55055 whole entry): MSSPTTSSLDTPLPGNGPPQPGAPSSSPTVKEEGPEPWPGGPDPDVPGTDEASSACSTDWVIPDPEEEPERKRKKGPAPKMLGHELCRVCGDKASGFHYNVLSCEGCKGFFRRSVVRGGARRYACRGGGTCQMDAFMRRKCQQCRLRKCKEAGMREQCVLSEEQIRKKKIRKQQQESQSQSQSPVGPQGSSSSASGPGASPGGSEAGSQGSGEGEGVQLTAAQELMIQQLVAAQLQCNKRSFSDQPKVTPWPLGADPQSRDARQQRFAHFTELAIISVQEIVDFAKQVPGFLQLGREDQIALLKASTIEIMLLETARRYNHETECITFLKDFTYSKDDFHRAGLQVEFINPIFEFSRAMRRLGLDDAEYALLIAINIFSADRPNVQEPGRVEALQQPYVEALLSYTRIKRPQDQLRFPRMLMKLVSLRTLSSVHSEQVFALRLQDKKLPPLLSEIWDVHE
It counts as functional, cell-based.

A short description of assay [18]: cells.
Assay [19] has as its target Cytochrome P450 3A4 (Homo sapiens, UniProt P08684). To be noted: Potency.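 Also: confirmatory qHTS run detecting inhibitors and substrates of CYP3A4.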
Assay [20] deals with T6, Caspase-6 (Homo sapiens, UniProt P55212).
T6 sequence (P55212 whole entry): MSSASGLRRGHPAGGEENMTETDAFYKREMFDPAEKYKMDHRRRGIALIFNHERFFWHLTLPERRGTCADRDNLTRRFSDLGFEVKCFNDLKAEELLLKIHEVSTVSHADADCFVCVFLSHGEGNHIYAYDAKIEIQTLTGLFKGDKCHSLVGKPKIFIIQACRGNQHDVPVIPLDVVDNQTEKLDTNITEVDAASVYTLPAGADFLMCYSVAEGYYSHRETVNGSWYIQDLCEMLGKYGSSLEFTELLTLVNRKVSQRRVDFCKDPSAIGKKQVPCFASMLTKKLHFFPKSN
Put plainly: human caspase-6 inhibitors, dose response, biochemical, VEID-R110 fluorescence, cherry-pick (AID 720632).

Albumin, sequence (P02769 whole entry, the tested form may be a part): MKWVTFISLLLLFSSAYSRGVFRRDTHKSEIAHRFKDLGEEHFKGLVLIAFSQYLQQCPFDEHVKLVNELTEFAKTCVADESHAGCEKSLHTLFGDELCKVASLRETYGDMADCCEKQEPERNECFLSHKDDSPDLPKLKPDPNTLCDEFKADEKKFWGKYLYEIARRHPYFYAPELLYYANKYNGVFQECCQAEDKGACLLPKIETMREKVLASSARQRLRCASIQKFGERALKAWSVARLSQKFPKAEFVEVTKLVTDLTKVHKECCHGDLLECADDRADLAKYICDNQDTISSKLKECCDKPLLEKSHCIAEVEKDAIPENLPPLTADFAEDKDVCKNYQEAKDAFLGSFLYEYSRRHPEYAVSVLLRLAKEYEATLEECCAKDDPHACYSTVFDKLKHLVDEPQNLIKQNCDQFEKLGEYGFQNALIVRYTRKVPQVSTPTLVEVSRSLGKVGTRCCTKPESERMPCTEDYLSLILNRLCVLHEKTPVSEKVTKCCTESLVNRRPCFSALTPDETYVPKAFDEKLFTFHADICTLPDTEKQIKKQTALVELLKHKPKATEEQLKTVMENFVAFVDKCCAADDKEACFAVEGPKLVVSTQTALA
T4 sequence (P49327 whole entry, the tested form may be a part): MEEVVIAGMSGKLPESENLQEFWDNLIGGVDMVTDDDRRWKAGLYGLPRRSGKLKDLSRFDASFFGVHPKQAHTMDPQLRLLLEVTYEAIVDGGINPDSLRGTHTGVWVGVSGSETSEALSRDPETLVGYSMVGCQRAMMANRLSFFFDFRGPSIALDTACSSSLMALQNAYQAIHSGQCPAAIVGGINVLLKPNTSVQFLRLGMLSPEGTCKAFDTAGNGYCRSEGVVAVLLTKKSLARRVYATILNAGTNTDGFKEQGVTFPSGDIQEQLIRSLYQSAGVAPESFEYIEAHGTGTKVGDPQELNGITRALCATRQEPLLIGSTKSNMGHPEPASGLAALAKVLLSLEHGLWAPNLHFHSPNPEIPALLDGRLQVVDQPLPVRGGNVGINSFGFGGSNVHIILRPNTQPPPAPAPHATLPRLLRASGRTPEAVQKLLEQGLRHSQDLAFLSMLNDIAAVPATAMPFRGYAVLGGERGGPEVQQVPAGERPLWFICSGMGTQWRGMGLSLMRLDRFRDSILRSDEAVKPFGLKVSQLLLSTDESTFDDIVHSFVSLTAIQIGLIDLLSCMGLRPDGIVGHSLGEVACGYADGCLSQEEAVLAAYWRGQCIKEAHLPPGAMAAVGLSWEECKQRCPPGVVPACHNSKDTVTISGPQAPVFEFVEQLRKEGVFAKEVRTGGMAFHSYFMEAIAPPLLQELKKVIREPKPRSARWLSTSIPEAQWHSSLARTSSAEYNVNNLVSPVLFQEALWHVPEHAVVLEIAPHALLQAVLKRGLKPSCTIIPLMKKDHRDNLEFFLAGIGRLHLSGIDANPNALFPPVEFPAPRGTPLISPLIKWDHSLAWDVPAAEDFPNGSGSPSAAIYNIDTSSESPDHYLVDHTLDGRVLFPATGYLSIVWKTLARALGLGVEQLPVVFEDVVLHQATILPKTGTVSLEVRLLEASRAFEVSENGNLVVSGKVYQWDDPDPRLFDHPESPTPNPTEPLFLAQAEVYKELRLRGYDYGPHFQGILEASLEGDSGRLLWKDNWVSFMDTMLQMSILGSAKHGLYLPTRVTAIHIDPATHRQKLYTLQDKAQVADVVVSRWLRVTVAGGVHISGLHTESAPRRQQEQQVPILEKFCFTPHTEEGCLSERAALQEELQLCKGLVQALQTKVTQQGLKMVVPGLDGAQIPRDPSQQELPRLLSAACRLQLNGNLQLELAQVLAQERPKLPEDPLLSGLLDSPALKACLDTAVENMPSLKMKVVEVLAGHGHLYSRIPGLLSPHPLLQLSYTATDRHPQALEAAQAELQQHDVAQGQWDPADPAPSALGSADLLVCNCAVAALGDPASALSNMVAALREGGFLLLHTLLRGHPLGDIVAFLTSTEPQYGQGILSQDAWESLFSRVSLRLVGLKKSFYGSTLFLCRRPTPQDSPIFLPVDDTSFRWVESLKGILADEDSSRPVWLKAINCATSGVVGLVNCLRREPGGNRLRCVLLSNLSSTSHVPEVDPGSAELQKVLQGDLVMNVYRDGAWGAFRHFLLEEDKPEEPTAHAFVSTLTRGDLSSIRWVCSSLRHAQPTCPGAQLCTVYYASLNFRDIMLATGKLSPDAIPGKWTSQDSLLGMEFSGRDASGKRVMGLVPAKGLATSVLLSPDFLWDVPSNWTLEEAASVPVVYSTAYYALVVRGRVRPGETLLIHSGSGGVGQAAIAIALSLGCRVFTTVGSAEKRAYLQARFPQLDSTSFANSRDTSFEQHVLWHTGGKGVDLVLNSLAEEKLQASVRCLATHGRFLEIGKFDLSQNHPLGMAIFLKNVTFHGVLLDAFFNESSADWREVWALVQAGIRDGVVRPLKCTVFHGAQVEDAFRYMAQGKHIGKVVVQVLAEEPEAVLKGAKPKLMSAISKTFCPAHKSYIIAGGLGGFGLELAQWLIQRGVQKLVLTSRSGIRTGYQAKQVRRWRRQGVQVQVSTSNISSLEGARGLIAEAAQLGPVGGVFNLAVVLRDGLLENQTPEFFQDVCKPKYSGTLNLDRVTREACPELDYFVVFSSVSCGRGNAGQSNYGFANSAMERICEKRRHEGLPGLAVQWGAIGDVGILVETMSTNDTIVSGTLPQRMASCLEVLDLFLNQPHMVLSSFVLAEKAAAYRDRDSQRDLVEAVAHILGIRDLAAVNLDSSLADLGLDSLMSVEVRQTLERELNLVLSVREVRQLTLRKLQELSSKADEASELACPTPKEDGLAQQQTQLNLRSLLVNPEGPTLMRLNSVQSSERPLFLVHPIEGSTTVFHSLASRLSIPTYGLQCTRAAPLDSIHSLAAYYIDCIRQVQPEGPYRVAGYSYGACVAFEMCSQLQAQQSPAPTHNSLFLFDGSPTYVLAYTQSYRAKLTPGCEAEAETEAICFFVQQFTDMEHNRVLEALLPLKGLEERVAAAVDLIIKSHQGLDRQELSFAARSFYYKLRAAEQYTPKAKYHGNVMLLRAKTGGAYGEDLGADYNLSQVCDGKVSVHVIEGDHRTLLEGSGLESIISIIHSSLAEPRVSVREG
Induced myeloid leukemia cell differentiation protein Mcl-1, sequence (Q07820 whole entry): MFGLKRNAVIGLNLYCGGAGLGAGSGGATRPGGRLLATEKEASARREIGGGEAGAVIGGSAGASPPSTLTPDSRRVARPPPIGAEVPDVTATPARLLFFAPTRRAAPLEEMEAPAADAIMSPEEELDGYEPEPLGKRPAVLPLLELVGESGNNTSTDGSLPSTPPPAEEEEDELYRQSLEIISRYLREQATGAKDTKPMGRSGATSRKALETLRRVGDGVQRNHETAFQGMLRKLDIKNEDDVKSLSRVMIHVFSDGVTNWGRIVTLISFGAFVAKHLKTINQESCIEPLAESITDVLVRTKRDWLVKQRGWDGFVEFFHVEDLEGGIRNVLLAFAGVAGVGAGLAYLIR
Large T antigen, sequence (P03070 whole entry): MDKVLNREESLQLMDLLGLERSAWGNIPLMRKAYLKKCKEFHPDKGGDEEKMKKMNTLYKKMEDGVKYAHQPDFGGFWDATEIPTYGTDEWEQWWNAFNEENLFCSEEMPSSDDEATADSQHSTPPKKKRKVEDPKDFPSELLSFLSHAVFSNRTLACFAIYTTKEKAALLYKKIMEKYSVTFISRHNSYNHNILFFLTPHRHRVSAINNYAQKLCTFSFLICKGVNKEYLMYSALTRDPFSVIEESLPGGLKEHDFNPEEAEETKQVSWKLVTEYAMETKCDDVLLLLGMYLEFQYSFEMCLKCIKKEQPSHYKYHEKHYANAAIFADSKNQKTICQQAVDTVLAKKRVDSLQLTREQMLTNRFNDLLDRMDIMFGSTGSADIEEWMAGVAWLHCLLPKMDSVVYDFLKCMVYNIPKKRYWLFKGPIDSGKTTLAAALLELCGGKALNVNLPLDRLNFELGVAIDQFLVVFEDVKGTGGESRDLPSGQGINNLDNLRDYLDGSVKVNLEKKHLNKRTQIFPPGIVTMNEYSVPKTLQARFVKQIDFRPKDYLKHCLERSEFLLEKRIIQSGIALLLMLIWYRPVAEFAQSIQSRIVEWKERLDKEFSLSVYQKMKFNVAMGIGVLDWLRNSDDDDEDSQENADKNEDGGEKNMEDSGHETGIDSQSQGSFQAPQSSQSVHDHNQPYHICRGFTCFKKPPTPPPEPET
Cytochrome P450 3A4, sequence (P08684 whole entry): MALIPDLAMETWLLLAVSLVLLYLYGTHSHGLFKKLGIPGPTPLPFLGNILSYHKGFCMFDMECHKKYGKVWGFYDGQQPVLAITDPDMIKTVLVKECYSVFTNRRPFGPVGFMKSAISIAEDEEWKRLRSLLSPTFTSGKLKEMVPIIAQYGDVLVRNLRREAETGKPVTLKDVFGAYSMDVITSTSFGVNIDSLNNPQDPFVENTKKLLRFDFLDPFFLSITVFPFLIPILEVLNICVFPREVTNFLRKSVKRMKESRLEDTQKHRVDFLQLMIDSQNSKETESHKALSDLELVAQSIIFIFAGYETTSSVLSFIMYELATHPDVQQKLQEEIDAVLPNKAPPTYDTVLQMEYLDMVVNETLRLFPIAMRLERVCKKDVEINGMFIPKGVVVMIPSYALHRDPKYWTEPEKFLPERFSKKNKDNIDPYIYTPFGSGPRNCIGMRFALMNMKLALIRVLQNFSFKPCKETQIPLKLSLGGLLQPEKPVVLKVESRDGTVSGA

As a reminder, the EC50 is the midpoint of the concentration-response curve. As usually defined, the IC50 is the concentration at which inhibition is half-maximal. `O=C(/C=C/Nc1ccc(F)cc1F)c1ccco1`: the EC50 in assay [1] was 0.812 µM (active); in assay [2], 4.36 µM (active). Further, the values for the IC50 in assay [3], in [4] and in assay [5] were 17 µM (active), > 67.5 µM (inactive) and > 67.5 µM (inactive), respectively.
The term AC50 denotes the concentration giving half of the maximal activity seen. Regarding `Cc1ccccc1S(=O)(=O)Oc1ccc2ccc(O)cc2c1`, the AC50 in assay [6] was 49.4 µM (active).
For `COCCn1c(C)cc(C(=O)CN2C(=O)NC3(CCCCCC3)C2=O)c1C`, the IC50 in assay [4] and in assay [5] was > 67.5 µM (inactive) throughout.
`C=CCOc1c(Br)cc(/C=N/Nc2ccc(C(=O)O)cc2)cc1OCC`: the AC50 in [7] is 62.7 µM (active). The results for the IC50 in assay [8] and in assay [9] were 12.6 µM (active) and 10.5 µM (active), respectively.
Turning to `O=C1NN(c2ccccc2)C(=O)/C1=C\c1ccc(-c2cc([N+](=O)[O-])ccc2O)o1`, the IC50 is 20.7 µM (active) in assay [10] and 10.7 µM (active) in assay [11]. In assay [7], the AC50 was 8.08 µM (active).
With `CC(C)c1nnc(NC(=O)c2ccc3c(c2)OCO3)s1`, the IC50 in [4] is > 67.6 µM (inactive); in [5], > 0.278 µM (active). In addition, the AC50 in assay [12] is > 52 µM (inactive); in [13] it was > 52 µM (inactive); in assay [14] it was 4.95 µM (active); in assay [15], 5.43 µM (active).
In the case of `CC(=O)NNC(=S)NC(=O)c1ccc(C)cc1`, the IC50 in assay [16] was > 94 µM (inactive).
For the compound `Cc1ccc2oc(Nc3nc(C)c(C)c(C)n3)nc2c1`, the AC50 in [6] was 192 µM (active).
On to `Cc1ccc2[nH]c(CSc3nc(C)cc(C)c3C#N)nc2c1`, for which the EC50 in assay [17] and in assay [18] was > 67.5 µM (inactive) in each case.
As to `CCN(N=O)c1ccc(C=C2C=Cc3ccccc32)cc1`, the AC50 in assay [6] was 68.9 µM (active).
In the case of `Clc1ccc(-c2ccc(SCc3ccccn3)nn2)cc1`, the AC50 in assay [6] was 50.7 µM (active).
On to `COc1ccc(-c2cc(=O)c3cc(OC)ccc3o2)cc1` [6,4'-DIMETHOXYFLAVONE], for which the IC50 in assay [4] and in assay [5] was > 67.5 µM (inactive) throughout. Besides, the AC50 in assay [19] is 3.16 µM (inconclusive).
Regarding `CS(=O)(=O)N1CCc2cc(C(=O)Nc3ccccc3Br)ccc21`, the AC50 in assay [6] was > 350 µM (inactive).
For `O=C(NNC(=O)c1ccccc1F)c1cccc(-n2cccc2)c1`, the IC50 in [16] is > 94 µM (inactive). In addition, the half-maximal activity concentration (AC50) in assay [20] was 1.2 µM (active).
